From patent US20120184747A1, “ANILINE COMPOUND” (UBE INDUSTRIES, LTD., priority 2009, published 2012)
Structures can show the parent of a compound that is named as a salt. Where two headings read alike, the source gives them in different places.

Columns and labels:
[1] = test system: isolated guinea pig trachea; test: Isolated guinea pig trachea relaxation test; conditions: Cavia porcellus, read-out: Contraction-inhibiting rate (%)
Experimental: The tracheas were isolated from guinea pigs (Hartley, male, age 7 to 9 weeks, supplier: Nippon SLC) followed by cutting as rings containing cartilage. The trachea specimens were suspended in Krebs solution containing 3 μM indomethacin while applying a load of 1.0 g, and changes in tension were measured through an FD pickup (TB-611T, Nippon Kohden). […] After causing the trachea specimen to contract by electrical field stimulation (SEN-3401, Nippon Kohden) and the contractive reaction being stable, a test compound dissolved in dimethylsulfoxide was added to cause the trachea specimen to relax. The inhibiting rate to the contractive reaction before adding the compound was calculated.

human EP2 receptor [2] = target: T1, human EP2 receptor (Homo sapiens, UniProt P43116); test: Measurement of EP2 agonist activity (cAMP in HEK293 cells expressing human EP2 receptor); format: cell-based; conditions: cAMP increase in HEK293 cells expressing human EP2 receptor, 30 minutes
T1 construct: host or cells: HEK293 cells
Experimental: Measurement of EP2 agonist activity was carried out in compliance with the method of Wilson et al. (European Journal of Pharmacology, 501, 49 (2004)). HEK293 cells expressing human EP2 receptor (ES-562-C, available from Euroscreen) were cultured in MEM medium containing 10% FBS and seeded at 2×10^4 cells per well of a 96-well plate. On the following day, the medium was replaced with serumfree MEM medium containing 3-isobutyl-1-methylxanthine (final concentration: 500 μM) and after culturing for 30 minutes, a test compound dissolved in dimethylsulfoxide was added followed by allowing to stand undisturbed in a carbon dioxide incubator. After 30 minutes, the amount of cAMP in the cells was measured with a cAMP Biotrak EIA System kit (available from GE Healthcare Biosciences). The concentration of test compound required to increase the amount of cAMP to 50% of the maximum increase (EC50 value) was calculated by non-linear regression of the test compound concentration and amount of cAMP using EXSAS.

human EP2 receptor [3] = target: T1, human EP2 receptor; test: Measurement of EP2 receptor binding action; conditions: membrane fraction of HEK293 cells expressing human EP2 receptor; [3H]prostaglandin 10 nM; Ki calculated from IC50
Experimental: Measurement of EP2 receptor binding action was carried out in compliance with the method of Abramovitz et al. (Biochimica et Biophysica Acta, 1483, 285 (2000)). A test compound dissolved in dimethylsulfoxide and [^3H]prostaglandin […] (NET-428, PerkinElmer) (final concentration: 10 nM) were added to a buffer solution (10 mM MES-KOH (pH 6.0), 10 mM MgCl2, 1 mM EDTA) in which was suspended 10 μg of a membrane fraction of HEK293 cells expressing human EP2 receptor (ES-562-M, available from Euroscreen) followed by incubating at 30° C. for 60 minutes. The membrane fraction was recovered on glass fiber filter paper (GF/B, Whatmann) using a cell harvester (M30R, Brandel), and after washing with buffer solution (10 mM MES-KOH (pH 6.0), 10 mM MgCl2), radioactivity was measured with a liquid scintillation analyzer (2000CA, Packard).
Ki=IC50/(1+([^3H]prostaglandin E2 concentration/Kd))
The dissociation constant (Kd value) was calculated by Scatchard analysis.

T1 sequence (P43116 whole entry): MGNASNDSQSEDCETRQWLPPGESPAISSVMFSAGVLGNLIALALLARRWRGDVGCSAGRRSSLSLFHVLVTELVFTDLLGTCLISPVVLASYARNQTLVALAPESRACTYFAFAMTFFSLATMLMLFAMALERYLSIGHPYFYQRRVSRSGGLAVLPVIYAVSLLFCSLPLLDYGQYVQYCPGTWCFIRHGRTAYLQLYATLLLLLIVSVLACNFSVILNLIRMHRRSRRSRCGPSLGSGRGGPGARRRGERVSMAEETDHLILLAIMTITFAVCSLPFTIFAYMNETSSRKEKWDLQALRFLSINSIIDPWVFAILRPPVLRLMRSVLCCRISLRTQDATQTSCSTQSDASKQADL

Structure (SMILES) | inhibition at 10 µM [1] [%] | further results
CCCCN(C)c1ccc(CN(Cc2cccc(NCC(=O)O)n2)S(=O)(=O)c2ccccn2)cc1 [Example 7, [6-({4-[Butyl(methyl)amino]benzyl}(pyridin-2-ylsulfonyl)aminomethyl)pyridin-2-ylamino]acetic acid] | – | inhibition at 0.03 µM [1]: 84%; EC50 (human EP2 receptor [2]): 1.2 nM; Ki (human EP2 receptor [3]): 10 nM
CNc1ccc(CN(Cc2cccc(NCC(=O)O)n2)S(=O)(=O)c2cccnc2)cc1 [Example 1, {6-[(4-Methylaminobenzyl) (pyridin-3-ylsulfonyl)aminomethyl]pyridin-2-ylamino}-acetic acid] | 95 | –
CCCS(=O)(=O)N(C)c1ccc(CN(Cc2cccc(NCC(=O)O)n2)S(=O)(=O)c2cccnc2)cc1 [Example 2, [6-({4-[Methyl(propylsulfonyl)amino]benzyl}(pyridin-3-ylsulfonyl)aminomethyl)pyridin-2-ylamino]acetic acid] | 86 | –
CN(Cc1ccccc1)c1ccc(CN(Cc2cccc(NCC(=O)O)n2)S(=O)(=O)c2cccnc2)cc1 [Example 6, [6-({4-[Benzyl(methyl)amino]benzyl}(pyridin-3-ylsulfonyl)aminomethyl)pyridin-2-ylamino]acetic acid] | 94 | –
CCCC(=O)N(C)c1ccc(CN(Cc2cccc(NCC(=O)O)n2)S(=O)(=O)c2cccnc2)cc1 [Example 5, [6-({4-[Butyryl(methyl)amino]benzyl}(pyridin-3-ylsulfonyl)aminomethyl)pyridin-2-ylamino]acetic acid] | 92 | –
CC[N+](C)(CC)c1ccc(CN(Cc2cccc(NCC(=O)O)n2)S(=O)(=O)c2cccnc2)cc1 [Example 4, [6-({4-[Diethyl(methyl)ammonio]benzyl}(pyridin-3-ylsulfonyl)aminomethyl)pyridin-2-ylamino]acetic acid hydrochloride] | – | inhibition at 10 µM ([1]; test compound concentration 10 μM, contraction by electrical field stimulation): 81%
